Several values for one entry are separate records, joined by “and”; a condition that tells them apart may be missing. Identical values can stand only once. Entries after “also recorded” stand apart in the source; their conditions may differ. Marks after values point to notes of the source that are not given here.
Key:
[1] = system: Enteropathogenic E. coli (EPEC) E2348/69; assay: Crystal violet assay of attachment to plastic well surface; type: cell-based; conditions: 48 hours
Protocol: (§1) Enteropathogenic E. coli (EPEC) E2348/69 were grown in wells for 48 hours at 37° C. in the presence of FeQ (100 μM), and in the absence of FeQ (as control). After 48 hours, the wells were washed in order to remove suspended cells. Crystal violet was then added to each well. The wells were then washed to remove excess dye. A mixture of acetone/ethanol was then added to the wells to re-suspend any cells attached to the plastic surface of the wells, and dissolve any dye present. The presence of dye in each well was then quantified by measuring the O.D. at 570 nm.
as §1, with “FeDOPA (10-250” for “FeQ (100”, “FeDOPA” for “FeQ”

[2] = system: mature EPEC-ΔcsrA biofilm; assay: Disruption of preformed biofilm, BioFlux system; type: cell-based, E. coli; conditions: FeDOPA 100 μM; 20 hours
[3] = system: uropathogenic Escherichia coli UPEC-536; assay: Biofilm coverage rate on glass slide; type: cell-based; conditions: 0.1 μM, 1 μM, 10 μM and 100 μM; 72 hours; listed as Fe-QA
[4] = system: PAO-1 strains of Pseudomonas aeruginosa; assay: Biofilm formation on contact lens (ESEM); type: cell-based; conditions: 340 μM in LB, 37° C., 24 hours
Protocol: To investigate biofilm formation on the contact lens, clinically determined PAO-1 strains of Pseudomonas aeruginosa were incubated with the lenses in either Luria-Bertani Media (LB) or LB with a final concentration of 340 μM FeQ at 37° C. for 24 hours in a non-shaking incubator. The lenses were then washed 6 times with PBS+0.05% Tween, before being stored overnight in PBS+0.05% Tween. In preparation for the ESEM, formaldehyde was added to a final concentration of 1% and incubated for 10 minutes in order to inactivate the bacteria. The lenses were then washed 4 times with PBS+0.05% Tween, and immediately before analysis the lenses were washed a further two times with distilled water.

[5] = system: Enterococcus faecalis NCTC 12697; assay: Biofilm formation on plastic coated UV beads; type: cell-based; conditions: different concentrations of Fe-QA; T=0 and T=24 h
Protocol: (§2) Bacteria (Enterococcus faecalis NCTC 12697, Staphylococcus epidermidis F1513 and Staphylococcus aureus ATCC 25923) were grown on Brain heart infusion (BHI) passaged to new medium either containing Fe-QA or alone. Growth suspensions were prepared at 0.0001 OD/mi and then allowed to grow at 37° C. under nounal atmospheric conditions for 24 h in BHI with plastic coated UV beads (Lascells). […], 10 μl suspension was serially diluted 10 fold to 10-3, 10-4, 10-5, 10-6, 10-7, 10-8. For each dilution, 10 μl was spotted on BHI agar plates and colonies counted after 24 h. The beads were also removed washed in PBS before adding to 1 ml PBS. After vortex mixing, 10 μl of the cell suspension was serially diluted as above and cell counts carried out.

[6] = system: Staphylococcus aureus ATCC 25923; assay: Biofilm formation on plastic coated UV beads; type: cell-based; conditions: different concentrations of Fe-QA; T=0 and T=24 h
Protocol: as §2

[7] = system: Staphylococcus epidermidis F1513; assay: Biofilm formation on plastic coated UV beads; type: cell-based; conditions: different concentrations of Fe-QA; T=0 and T=24 h
Protocol: as §2

[8] = Treatment of an acne patient; type: in vivo, human
Protocol: A patient was treated continuously for 30 days by applying a solution of ferric quinate (340 μM) to their acne vulgarism (“acne”) once each day. Within 5 days of the start of treatment, their acne, which had not previously responded to treatment with antibiotics, began to show signs of healing.

[9] = system: bacterial flora present in the mouth; assay: Biofilm formation on extracted human teeth (CEPLAC staining); type: cell-based; conditions: FeQ 340 μM; 48 hours of culturing
Protocol: Molar teeth were extracted from human patients, and mouth swabs taken from each patient to obtain samples of each patient's bacterial flora present in the mouth. The mouth swabs were cultured in the laboratory using LB media in order to grow bacterial populations ordinarily present in the mouth of each patient. The extracted teeth were washed and brushed extensively using PBS buffer and ethanol. Each patient's tooth was then placed in the bacterial culture prepared from that patient's bacterial flora sample, and cultured aerobically for 24 hours in LB media. The teeth were then stained with CEPLAC™ (Manx Healthcare Ltd, Warwick, UK), and washed three times with PBS-Tween (50 mL) to determine if biofilm had been formed on the teeth.
All teeth stained red indicating the presence of biofilm on the teeth after just 24 hours. The same teeth were then cleaned using PBS buffer and ethanol, and the procedure repeated except with 48 hours of culturing in the presence of FeQ (340 μM).

[10] = Broiler trial: growth performance; type: in vivo, chicken (Ross 308 male broilers)
Protocol: (§3) A study was performed to evaluate growth promotion and reduction of Campylobater carriage using FeQ and FeTyr in Ross 308 male broilers with 7 treatment groups. Each treatment group comprised four replicates of 10 birds per pen (40 birds/treatment group and 4 pens of 10 birds/treatment group), and there were 2 control groups and 5 test groups. All the test groups and one of the control groups were exposed at day 20 of the trial to dirty litter, which tested positive for Campylobacter. This method was used to provide a more natural method to Campylobater challenge the birds. Thus there was a positive control where one treatment group was challenged with Campylobacter and one negative control group where the birds were not challenged, and five treatment groups that were all challenged with Campylobacter. The total number of birds used in the 7 treatment groups was 280. Treatment group 1 was a negative control where birds just received the commercial feed, and were not challenged with dirty litter containing Campylobacter. Treatment group 2 was the positive control where the birds received the commercial feed, and were challenged with dirty litter containing Campylobater at day 20. Treatment group 3 received 0.22 g/L of FeQ in their drinking water and 0.22 g/Kg FeQ in their feed during the entire trial, and was challenged with dirty litter containing Campylobater at day 20. Treatment group 5 received 0.22 g/L of FeQ in their drinking water during the entire trial, and was challenged with dirty litter containing Campylobater at day 20. Treatment group 6 received 0.22 g/kg FeQ in their feed during the entire trial, and was challenged with dirty litter containing Campylobater at day 20. Treatment group 7 received 0.022 g/L FeQ in their drinking water during the entire trial, and was challenged with dirty litter containing Campylobater at day 20. Treatment group 8 received 0.02 g/L FeTyr in their drinking water during the entire trial, and was challenged with dirty litter containing Campylobater at day 20. The FeTyr was pre-dissolved in DMSO, and diluted to provide a solution of 0.02 g/L of FeTyr in water. (An additional treatment group 4 was terminated due to solubility issues.)
The birds were fed with a commercial three-phase feeding program using starter, grower and finisher feeds with formulations shown in Table 2. All diets had coccidiostat (MAXIBAN® at 0.0625% in starter and […] and MONTEBAN® at 0.06% in finisher phase). Xylanase (RONOZYME® WX at 200 g per ton) and phytase (RONOZYME® P at 150 grams per ton) were added to all diets.
The feeding program is show in Table 3. The birds were reared in floor pens to day 42, and fed starter, grower and finisher feed at day 0 to 11, 11 to 24, and 24 to 42 days, respectively. All birds were weighed individually and feed weigh backs recorded per pen at day 0, 11, 21, 24 and 42 days.
Prior to challenging the chickens with dirty litter containing Campylobacter at day 20, each pen was tested for Campylobater using cloacal swabs. All pens tested negative for Campylobater prior to the challenge. At day 20, litter, which was naturally Campylobacter-contaminated was tested to confirm the presence of Campylobacter, and then added (approximately 2 kg/pen) to the litter in all pens except in pens for treatment group 1 (the negative control). At day 28, the pen litter was sampled to confirm the presence or absence of Campylobacter. At day 41 and 42, caecal samples were taken from 3 birds per pen (12 birds per treatment group) and tested for Campylobater enumeration. At day 42, digesta, fecal samples, and caecal content was taken from all birds, and pooled per pen. Two birds per pen were also taken from treatment groups 1-3, euthanized, and blood samples taken. […]

Campylobacter = assay: Broiler trial: Campylobacter carriage in droppings and caeca; type: in vivo; conditions: chickens challenged day 20
Protocol: as §3
Prior to challenging the chickens with dirty litter containing Campylobacter at day 20, each pen was tested for Campylobater using cloacal swabs. All pens tested negative for Campylobater prior to the challenge. At day 20, litter, which was naturally Campylobacter-contaminated was tested to confirm the presence of Campylobacter, and then added (approximately 2 kg/pen) to the litter in all pens except in pens for treatment group 1 (the negative control). At day 28, the pen litter was sampled to confirm the presence or absence of Campylobacter. At day 41 and 42, caecal samples were taken from 3 birds per pen (12 birds per treatment group) and tested for Campylobater enumeration. At day 42, digesta, fecal samples, and caecal content was taken from all birds, and pooled per pen. Two birds per pen were also taken from treatment groups 1-3, euthanized, and blood samples taken. Samples were analyzed for blood chemistry, including analysis for alkaline phosphatase, aspartate amino transferase, alanine amino transferase, gamma-glutamyl transferase, lactate dehydrogenase, total protein, albumin, globulin, amylase and glucose.

[11] = system: Pseudomonas aeruginosa PAO-1; assay: Biofilm coverage rate on glass slide; type: cell-based; conditions: 100 μM; 72 hours
[12] = FeQ treatments 3, 5, 6, 7, FeTyr treatment 8, challenged day 20
[13] = treatment 3: 0.22 g/L FeQ in water + 0.22 g/kg FeQ in feed, challenged day 20
[14] = treatment 5: 0.22 g/L FeQ in water, challenged day 20
[15] = treatment 6: 0.22 g/kg FeQ in feed, challenged day 20
[16] = treatment 7: 0.022 g/L FeQ in water, challenged day 20

Fe(DOPA)3 [FeDOPA]
attachment of EPEC cells to plastic well surface (crystal violet O.D. at 570 nm) ([1]; FeDOPA 68-250 μM): attachment of bacterial cells to the surface and biofilm formation is inhibited | dispersion of mature biofilm [2]: dispersed the biofilm

O=C([O-])C1(O)CC(O)C(O)C(O)C1.O=C([O-])C1(O)CC(O)C(O)C(O)C1.O=C([O-])C1(O)CC(O)C(O)C(O)C1.[Fe+3] (stereo not drawn) [FeQ, ferric quinate]
biofilm formation (coverage rate on glass slide) [3]: inhibits founation of biofilm; also recorded: inhibits the formation of biofilm | biofilm formation on contact lens (ESEM images) [4]: inhibits biofilm formation | attachment of EPEC cells to plastic well surface (crystal violet O.D. at 570 nm) ([1]; FeQ 100 μM): little or no attachment of bacterial cells to the surface and no biofilm formation | biofilm formation on plastic coated UV beads [5]: inhibited E. faecalis biofilm formation | biofilm formation on plastic coated UV beads [6]: inhibited S. aureus biofilm formation | biofilm formation on plastic coated UV beads [7]: inhibited S. epidermidis biofilm formation | acne outcome after treatment for 30 days ([8]; solution 340 μM applied once each day): completely healed | recurrence of acne after discontinuation of treatment for over one year ([8]; solution 340 μM applied once each day for 30 days): did not recur | time to first signs of healing of acne ([8]; solution 340 μM applied once each day, patient): ≤ 5 days | biofilm on teeth (red CEPLAC staining) [9]: no teeth stained red | MFCR (mortality adjusted feed conversion ratio) 0-20 ([10]; FeQ groups 3, 5, 6, 7 pooled, absence of Campylobacter challenge): 1.2996 | MFCR at day 42 versus positive control [10, 12]: positive effect on MFCR | average body weight at day 42 versus positive control [10, 12]: positive effect on growth | ABW (average body weight) Day 0 [10, 13]: 0.040 kg | MFCR (mortality adjusted feed conversion ratio) Day 0-11 [10, 13]: 1.181^ab | MFCR (mortality adjusted feed conversion ratio) Day 0-42 [10, 13]: 1.595 | ABW (average body weight) Day 0 [10, 14]: 0.040 kg | MFCR (mortality adjusted feed conversion ratio) Day 0-11 [10, 14]: 1.210^ab | MFCR (mortality adjusted feed conversion ratio) Day 0-42 [10, 14]: 1.560 | ABW (average body weight) Day 0 [10, 15]: 0.041 kg | AFD (average feed intake) Day 0-11 [10, 15]: 0.360 kg | AWG (average weight gain) Day 0-11 [10, 15]: 0.310 kg | AWG (average weight gain) Day 11-20 [10, 15]: 0.640 kg | MFCR (mortality adjusted feed conversion ratio) Day 0-11 [10, 15]: 1.168^a | MFCR (mortality adjusted feed conversion ratio) Day 0-42 [10, 15]: 1.563 and 1,563 | ABW (average body weight) Day 0 [10, 16]: 0.040 kg | MFCR (mortality adjusted feed conversion ratio) Day 0-11 [10, 16]: 1.236^b | MFCR (mortality adjusted feed conversion ratio) Day 0-42 [10, 16]: 1.612 | average Campylobacter cfu/g of caeca samples at day 42 versus positive control (Campylobacter; FeQ treatments 3, 5, 6, 7, FeTyr treatment 8): lower levels of Campylobacter in their caeca; also recorded: positive effect on reducing Campylobacter infection of poultry | Campylobacter cfu/g of bird droppings at day 42 versus positive control (Campylobacter; FeQ treatments 3, 6, 7, FeTyr treatment 8): positive effect on reducing Campylobacter infection of poultry | Campylobacter colony forming units per gram of bird droppings at day 42 (Campylobacter; treatment 3: 0.22 g/L FeQ in water + 0.22 g/kg FeQ in feed): 4,860 cfu/g | Campylobacter colony forming units per gram of bird droppings at day 42 (Campylobacter; treatment 6: 0.22 g/kg FeQ in feed): 12,800 cfu/g | Campylobacter colony forming units per gram of bird droppings at day 42 (Campylobacter; treatment 7: 0.022 g/L FeQ in water): 900,000 cfu/g | biofilm formation (coverage rate on glass slide) [11]: inhibits the formation of biofilm
